Test results reported in patent publication US8592446B2, “[1,10]-phenanthroline derivatives for the treatment of neurodegenerative or haematological diseases” (Noscira, S.A., priority 2007, dated 2013).

Experiments:
Format in all cases: cell-based
[1] = test system: SH-SY5Y human neuroblastoma cells; experiment: Toxicity: LDH activity release in SH-SY5Y cells; conditions: 24 h; for Maximum concentration tested for toxicity: increasing concentrations from 1 μM up to 1 mM; for Toxic at maximum concentration tested (Yes/No): at 10 μM
Procedure: The potential effects on cell viability of the assayed compounds are assayed in SH-SY5Y human neuroblastoma cells, by quantification of Lactate dehydrogenase (LDH) activity release. SH-SY5Y human neuroblastoma cells are seeded into 96-well culture plates at 10^4 cells/well. The medium is then removed and the cells incubated with different concentrations of the compounds during 24 h. The compounds are tested at increasing concentrations starting from 1 μM, in fresh culture medium, in order to find the minimum concentration at which the compounds are toxic, up to a maximum of 1 mM. After 24 h, the medium is removed and cells attached to the bottom of the well are lysed by adding 50 μl of Krebs-Hepes; Triton X-100 1% during 5 minutes at room temperature. For LDH release quantification, the Roche cytotoxicity detection kit (Cat.
No. 11 644 793 001) is used. The LDH activity is measured by its absorbance at 492 nm with reference wavelength 620 nm.
In Table 1, for each compound the maximum concentration at which toxicity was tested is indicated in the second column. In the third column, it is indicated whether at this maximum concentration the compound was toxic or not. All the compounds, with the exception of Compound 3, resulted non-toxic at the concentration for which activity was found, in most of the cases even at a 1000-fold concentration. Thus, the compounds may be considered non-toxic.

[2] = test system: SH-SY5Y human neuroblastoma cells; experiment: Protection against hydrogen peroxide-induced cell death (LDH); conditions: Homo sapiens, SH-SY5Y, compound 1 h before H2O2 100 μM, 24 h, read-out: Protect. H2O2 (minimum concentration for which protection was determined)
Procedure: The aim of this assay is to determine the neuroprotective effect of the compounds of formula (I), when human neuroblastoma cells are exposed to oxidative stress induced by hydrogen peroxide, which is highly deleterious to the cell and its accumulation causes oxidation of cellular targets such as DNA, proteins, and lipids leading to mutagenesis and cell death.
SH-SY5Y human neuroblastoma cells are seeded into 96-well culture plate at a density of 10^4 cells/well. Cells are exposed to different concentrations of the compound one hour before the treatment with H2O2 100 μM during 24 h. 5 mM N-acetylcysteine (NAC), a known anti-oxidant agent was used as a positive control, and preincubated 1 hour before the treatment with H2O2. After 24 h, the medium is removed and cells attached to the bottom of the well are lysed by adding 50 μl of Triton X-100 1% in Krebs-Hepes during 5 minutes at room temperature. For LDH release quantification, Roche cytotoxicity detection kit (Cat. No. 11 644 793 001) was used.

[3] = test system: SH-SY5Y human neuroblastoma cells; experiment: Protection against 6-OHDA-induced cell death, condition A (10% foetal bovine serum); conditions: preincubated 2 hours, 6-OHDA 75 μM 16 hours, read-out: Protect. 6-OHDA (+ FBS) (minimum concentration with neuroprotective effect)
From the text: (§1) The aim of this experiment is to determine the protective effect of the compounds of formula (1) against the toxicity caused by 6-OHDA. This toxin induces a cell death similar to which occurs in Parkinson's disease, destroying dopaminergic neurons (“MPTP and 6-hydroxydopamine-induced neurodegeneration as models for Parkinson's disease: neuroprotective strategies”; Grunblatt E, et al.; J Neurol. 2000 Apr; 247 Suppl 2:II95-102).
(§2) Two or three days before the experiment, the SH-SY5Y human neuroblastoma cells are seeded into 96-well culture plate at a density of 10^4 cells/well. Cells are exposed to the treatment with 6-OHDA and, finally, cell death is measured by LDH quantification. As positive control we used NAC.
• A) NAC and the compound of formula (I) are preincubated during 2 hours before the treatment with 6-OHDA 75 μM during 16 hours. The assay is performed in medium containing 10% Foetal bovine serum.
(§3) For each compound the minimum concentration of compound of formula (I) at which a neuroprotective effect is shown.

[4] = test system: SH-SY5Y human neuroblastoma cells; experiment: Protection against 6-OHDA-induced cell death, condition B (no fetal bovine serum); conditions: preincubated 1 hour, 6-OHDA 50 μM 24 hours, read-out: Protect. 6-OHDA (−FBS) (minimum concentration with neuroprotective effect)
From the text: as §1, §2
• B) NAC and the compound of formula (I) are preincubated during 1 hour before the treatment with 6-OHDA 50 μM during 24 hours. The assay is performed in a medium without any fetal bovine serum.
as §3

[5] = test system: SH-SY5Y cells; experiment: Neuroprotection against Aβ25-35 toxicity (LDH assay); conditions: Homo sapiens, pre-treated 1 hour, 200 μM Aβ25-35 24 hours, read-out: Protect. beta-Amyloid25-35 (minimum concentration showing neuroprotection)
Procedure: In order to evaluate potential neuroprotection of compounds, SH-SY5Y cells, cultured in 96-well plates, were pre-treated for 1 hour with the compound at different concentrations and then exposed 24 hours to 200 μM Aβ25-35 (Neosystem) to induce extensive oxidative stress and cell death. The ability of the compound of protecting against this toxicity is then evaluated by measuring intracellular LDH, using the colorimetric LDH assay.
It is widely accepted that the neurotoxic activity of Aβ resides within amino acids 25-35 (see e.g. Yankner B A et al., (1990) Neurotrophic and neurotoxic effects of amyloid β protein: reversal by tachykinin neuropeptides; Science 250:279-282).

[6] = test system: Aβ (1-40) secretion by CHO7W cells (stably transfected with human APP751 wt cDNA); experiment: Inhibition of Aβ(1-40) secretion (ELISA, cellular supernatants); conditions: Homo sapiens, CHO-7W, Aβ 1-40 ELISA, read-out: Inhibition secretion beta-amyloid (minimum concentration)
From the text: To quantitate Aβ secretion ELISA-based method was used. The assay consists in detection of antigen by selective monoclonal anti-Aβ-antibodies at two different epitopes forming a “Sandwich-complex”, that is detected by colorimetric measure due to the binding of a secondary antibody conjugated with peroxidase that catalyses the conversion of a substrate or chromogen, TMB, into a coloured product, directly proportional to the peptide quantity in the sample. The Aβ production has been analyzed by ELISA, using a colorimetric commercial kit: Immunoassay Kit Human β Amyloid 1-40 (Biosource).
Aβ (1-40) were quantified from cellular supernatants. An APP-transfected cell line has been employed for the experiments: CHO7W (stably transfected with human APP751 wt cDNA). The cells were grown in a culture medium consisting of DMEM supplemented with 2% Fetal bovine serum, 1% penicillin-streptomycin, 1% L-glutamine and 200 μg/ml G418. Cells are seeded in 96-well culture microplate, at 5000 cells/well and treatment with different compounds at different concentrations is performed 24 hour after seeding.
OM99-2 (H-5108, Bachem), a BACE inhibitor, was used as Aβ secretion reduction positive control in all the Aβ secretion studies. The cells were treated with this compound at 3 μM concentration, culture media were collected at 24 hours.

| Structure (SMILES) | Maximum concentration tested for toxicity [1] [µM] | Toxic at maximum concentration tested (Yes/No) [1] | minimal effective concentration [2] [µM] | minimal effective concentration [3] [µM] | minimal effective concentration [4] [µM] | minimal effective concentration [5] [µM] | minimal effective concentration [6] [µM] |
| --- | --- | --- | --- | --- | --- | --- | --- |
| O=C(O)CSc1cc(C=NO)nc2c1ccc1cccnc12 [Compound 16, [2-(Hydroxyimino-methyl)-[1,10]phenanthrolin-4-ylsulfanyl]-acetic acid] | 10 | Yes | 0.05 | 0.5 | 10 | 5 | 1 |
| Cc1nnc(Sc2cc(C=NO)nc3c2ccc2cccnc23)s1 [Compound 18, 4-(5-Methyl-[1,3,4]thiadiazol-2-ylsulfanyl)-[1,10]phenanthroline-2-carbaldehyde oxime] | 10 | Yes | 0.05 | 0.05 | 10 | 10 | 0.1 |
